In patent publication US6919350B2 (priority 1996, dated 2005):
Several values for one entry are separate records, joined by “and”; a condition that tells them apart may be missing. Equal entries are not always repeated. Entries after “also recorded” stand apart in the source; their conditions may differ. Where two headings read alike, the source gives them in different places.

Legend:
[1] = system: rats; assay: Tail-pinch analgesia during alfenta infusion with delta agonist (Example 14); assay type: in vivo, rat; settings: continuous i.v. infusion of alfenta and i.v. bolus of various doses
Experimental: Analgesia was also assessed with a tail-pinch method at the same time points that blood was drawn.

[2] = system: rats; settings: rat, in vivo, iv
[3] = molecular target: T1, delta opioid receptor in the mouse vas deferens (Mus musculus, UniProt P32300); assay: Electrically stimulated mouse vas deferens, delta opioid agonist potency (ED50)
T1 construct: Vasa deferentia were removed from mice; from tissue; host or cells: mouse vas deferens (isolated organ bath)

[4] = molecular target: T2, delta opioid receptor (Rattus norvegicus, UniProt P33533); assay: Delta receptor binding in rat brain membranes (Delta Receptor IC50)
T2 construct: Rat (Sprague-Dawley) brain membranes were prepared; from tissue; host or cells: rat (Sprague-Dawley) brain membranes
Experimental: The assay procedures used for such determinations of delta receptor activity are set out below.
Inhibition of receptor binding: Rat (Sprague-Dawley) brain membranes were prepared and binding assays were performed at 24° C. for 90 minutes as described by Chang, et al. (J. Biol. Chem. 254, 2610 (1979) and Mol. Pharmacol. 16, 91 (1979)) with a filtration method (GF/C filter). Delta receptor binding assays were performed with (^3H)-(+)-4-((α-R*)-α-((2S*,5R*)-4-Allyl-2,5-dimethyl-1-piperazinyl)-3-hydroxybenzyl)-N,N-diethylbenzamide (0.1 nM), having an activity of ˜48 Ci/mmole, or with ^3H-[D-Pen^2,D-Pen^5-(enkephalin)](^3H-DPDPE, 0.1 nM) having an activity of ˜50 Ci/mmole. Non-specific binding was determined in the presence of 1 mM of the unlabeled ligand. The potency of compounds in inhibiting the binding of (^3H)-(+)-4-((α-R*)-α-((2S*,5R*)-4-Allyl-2,5-dimethyl-1-piperazinyl)-3-hydroxy-benzyl)-N,N-diethylbenzamide or ^3H-DPDPE was determined as the concentration which reduced the binding of the labeled compounds by 50 percent (Delta Receptor IC50).

[5] = molecular target: T1, delta opioid receptor in the mouse vas deferens; assay: Antagonist potency (pA2, Schild analysis) in electrically stimulated mouse vas deferens
Experimental: In vitro bioassays: Vasa deferentia were removed from mice and suspended between platinum electrodes with 0.5 g of tension in organ bath chambers containing a modified Krebs' buffer of the following composition (millimolar): NaCl, 118; KCl, 4.75; CaCl2, 2.6; KH2PO4, 1.20; NaHCO3, 24.5; and glucose, 11. The buffer was saturated with 95% O2/5% CO2 and kept at 37° C. Tissues were stimulated at supramaximal voltage with 10 Hz pulse trains for 400 msec.; train interval 10 seconds; and 0.5 msec pulse duration. […] The ED50 values were extrapolated from curves showing the dose concentration plotted against the response (Lord, et al., Nature 267, 495, (1977)).

[6] = in vivo; settings: rat, iv
[7] = system: rats; assay: animal or person; assay type: in vivo; settings: Rattus norvegicus, iv, read-out: ED50 to produce analgesia
[8] = inhibition of electrically induced muscle contractions, read-out: Mouse Vas Deferens ED50
[9] = rat brain membranes, radioligand 3H-[D-Pen2,D-Pen5]-(enkephalin) 0.1 nM, read-out: Delta Receptor IC50
[10] = blockade of inhibitory effect of [D-Ala2,D-Leu5] enkephalin (footnote b)

T2 sequence (P33533 whole entry): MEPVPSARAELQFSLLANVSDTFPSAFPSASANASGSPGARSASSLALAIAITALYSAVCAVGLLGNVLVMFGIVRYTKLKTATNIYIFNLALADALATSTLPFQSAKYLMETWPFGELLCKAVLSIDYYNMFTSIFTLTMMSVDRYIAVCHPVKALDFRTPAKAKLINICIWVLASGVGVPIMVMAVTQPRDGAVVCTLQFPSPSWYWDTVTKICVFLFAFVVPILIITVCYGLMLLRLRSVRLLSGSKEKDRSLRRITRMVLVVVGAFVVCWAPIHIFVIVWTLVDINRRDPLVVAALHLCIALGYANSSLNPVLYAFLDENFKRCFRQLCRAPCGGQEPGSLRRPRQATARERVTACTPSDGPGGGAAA
T1 sequence (P32300 whole entry): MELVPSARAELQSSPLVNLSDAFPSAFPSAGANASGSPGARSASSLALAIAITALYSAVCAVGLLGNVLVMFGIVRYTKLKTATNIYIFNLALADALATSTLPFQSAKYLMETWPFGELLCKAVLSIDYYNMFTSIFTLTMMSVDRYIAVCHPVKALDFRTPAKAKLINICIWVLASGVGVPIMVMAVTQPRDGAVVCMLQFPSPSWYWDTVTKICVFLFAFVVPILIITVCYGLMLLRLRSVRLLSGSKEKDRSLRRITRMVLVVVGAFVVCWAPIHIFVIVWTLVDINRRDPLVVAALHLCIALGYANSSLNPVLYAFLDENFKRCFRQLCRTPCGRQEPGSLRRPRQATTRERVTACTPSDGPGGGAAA

In the case of `C=CCN1C[C@H](C)N([C@H](c2ccc(C(=O)N(CC)CC)cc2)c2cccc(O)c2)C[C@H]1C` [BW373U86, (+)-4-((αR)-α-((2S,5R)-4-allyl-2,5-dimethyl-1-piperazinyl)-3-hydroxybenzyl)-N,N-diethylbenzamide], the “effect on analgesia induced by alfenta (tail-pinch)” value [1] is reported as “did not significantly affect the analgesia” and the “effect on alfenta-induced respiratory depression (blood pCO2)” value [2] is reported as “dose dependently reduced the level of pCO2; also recorded: blocks the respiratory depression”.
With `C=CCN1C[C@H](C)N([C@H](c2ccc(C(N)=O)cc2)c2cccc(O)c2)C[C@H]1C` (relative stereo) [Compound 21, (±)-4-((αR*)-α-((2S*,5R*)-4-Allyl-2,5-dimethyl-1-piperazinyl)-3-hydroxybenzyl)benzamide] the EC50 [3, 8] was 44 nM and the IC50 [4, 9] was 1.6 nM.
Work on `C=CCN1C[C@H](C)N([C@H](c2ccc(C(=O)N(C)CC)cc2)c2cccc(O)c2)C[C@@H]1C` [Compound 8, 4-((αR)-α-((2S,5S)-4-Allyl-2,5-dimethyl-1-piperazinyl)-3-hydroxybenzyl)-N-ethyl-N-methylbenzamide] yielded an EC50 [3, 8] of 30 nM and an IC50 [4, 9] of 0.86 nM.
In the case of `C=CCN1[C@H](C)CN(C(c2ccc(C(=O)N(CC)CC)cc2)c2cccc(O)c2)C[C@@H]1C` (mixture of isomers) [Compound 23, (±)-cis-4-(α-(4-Allyl-3,5-dimethyl-1-piperazinyl)-3-hydroxybenzyl)-N,N-diethylbenzamide], the EC50 [3, 8] is reported as 42 nM and the IC50 [4, 9] is reported as 3.3 nM.
Compound `C/C=C\CN1[C@H](C)CN(C(c2ccc(C(=O)N(CC)CC)cc2)c2cccc(O)c2)C[C@@H]1C` (relative stereo) [Compound 17, cis-4-(α-(4-((Z)-2-butenyl)-3,5-dimethyl-1-piperazinyl)-3-hydroxybenzyl)-N,N-diethylbenzamide] has a Kb ([5]; blockade of inhibitory effect of (±)-4-((α-R*)-α-((2S*,5R*)-4-allyl-2,5-dimethyl-1-piperazinyl)-3-hydroxybenzyl)-N,N-diethylbenzamide (footnote c)) of 6.31 nM and an IC50 [4, 9] of 1.5 nM.
`C=CCN1C[C@@H](C)N([C@H](c2ccc(S(=O)(=O)N(C)C)cc2)c2cccc(O)c2)C[C@@H]1C` (relative stereo) [Compound 19, (±)-4-((αR*)-α-((2R*,5S*)-4-Allyl-2,5-dimethyl-1-piperazinyl)-3-hydroxybenzyl)-N,N-dimethylbenzenesulfonamide] gave an EC50 [3, 8] of 37 nM and an IC50 [4, 9] of 2.6 nM.
In the case of `C=CCN1C[C@@H](C)N([C@@H](c2ccc(C(=O)N(CC)CC)cc2)c2cccc(O)c2)C[C@H]1C` [Compound 2, (−)-4-((αS)-α-((2R,5R)-4-Allyl-2,5-dimethyl-1-piperazinyl)-3-hydroxybenzyl)-N,N-diethylbenzamide], the IC50 [4] is reported as 1 nM.
For `CCCN1C[C@@H](C)N([C@@H](c2ccc(C(=O)N(CC)CC)cc2)c2cccc(O)c2)C[C@H]1C` [Compound 4, (−)-4-((αS)-α-((2R,5R)-2,5-Dimethyl-4-propyl-1-piperazinyl)-3-hydroxybenzyl)-N,N-diethylbenzamide], the EC50 [3, 8] was greater than 1000 nM.
Work on “3-((αR)-α-((2S,5S)-4-Allyl-2,5-dimethyl-1-piperazinyl)benzyl)phenol and 3-((αS)-α-((2S,5S)-4-Allyl-2,5-dimethyl-1-piperazinyl)benzyl)phenol [Compound 9]” yielded an EC50 [3, 8] of 450 nM and an IC50 [4, 9] of 1.5 nM.
Work on `C[C@H]1CN([C@H](c2ccc(C(=O)N3CCCCC3)cc2)c2cccc(O)c2)[C@@H](C)CN1C` [Compound 12, 3-((αR)-4-(piperidinocarbonyl)-α-((2S,5S)-2,4,5-trimethyl-1-piperazinyl)benzyl)phenol] yielded an EC50 [3, 8] of 250 nM and an IC50 [4, 9] of 1.2 nM.
For `CCN(CC)C(=O)c1ccc([C@H](c2cccc(O)c2)N2C[C@@H](C)NC[C@H]2C)cc1` [Compound 7, N,N-Diethyl-4-((αR)-3-hydroxy-α-((2R,5R)-2,5-dimethyl-1-piperazinyl)benzyl)benzamide], the EC50 [3, 8] was 560 nM and the IC50 [4, 9] was 1.1 nM.
`C=CCN1C[C@H](C)N([C@@H](c2cccc(O)c2)c2cccc(C(=O)N(C)c3cccc(F)c3)c2)C[C@H]1C` [Compound 3290W93] showed an ED50 [6] of 2 mg/kg and an ED50 [7] of 0.08 mg/kg.
Work on `CCN(CC)C(=O)c1ccc([C@H](c2cccc(O)c2)N2C[C@@H](C)N(C)C[C@H]2C)cc1` [Compound 15, N,N-diethyl-4-(3-hydroxy-(αR)-α-((2R,5R)-2,4,5-trimethyl-1-piperazinyl)benzyl)benzamide] yielded an IC50 [4, 9] of 2.8 nM.
With `C=CCN1C[C@@H](C)N([C@H](c2ccc(C(=O)N(CC)CC)cc2)c2cccc(O)c2)C[C@H]1C` (stereo in doubt) [Compound 1, (−)-4-((αR)-α-((2R,5R)-4-allyl-2,5-dimethyl-1-piperazinyl)-3-hydroxybenzyl)-N,N-diethylbenzamide] the EC50 [3] was 43 nM and the IC50 [4] was 2 nM.
Work on `C=CCN1C[C@H](C)N([C@H](c2ccccc2)c2cccc(O)c2)C[C@H]1C` (relative stereo) [Compound 20, (±)-3-((αR*)-α-((2S*,5R*)-4-Allyl-2,5-dimethyl-1-piperazinyl)benzyl)phenol] yielded an EC50 [3, 8] of 78 nM and an IC50 [4, 9] of 1.3 nM.
Compound `C=CCN1C[C@H](C)N([C@H](c2ccc(C(N)=O)cc2)c2cccc(O)c2)C[C@@H]1C` [Compound 5] has an EC50 [3, 8] of 260 nM and an IC50 [4, 9] of 1.6 nM.
Compound “cis-4-(α-(3,5-Dimethyl-4-(methylallyl)-1-piperazinyl)-3-hydroxybenzyl)-N,N-diethylbenzamide [Compound 24]” has an EC50 [3, 8] of 20 nM.
For `CCN(CC)C(=O)c1ccc([C@@H](c2cccc(O)c2)N2C[C@H](C)N(C)C[C@@H]2C)cc1` [Compound 14, (+)N,N-Diethyl-4-(3-hydroxy-(αS)-α-((2S,5S)-2,4,5-trimethyl-1-piperazinyl)benzyl)-benzamide], the Kb [5, 10] was 79.4 nM and the IC50 [4, 9] was 2 nM.
Work on `CCN(CC)C(=O)c1ccc([C@H](c2cccc(O)c2)N2C[C@H](C)NC[C@H]2C)cc1` (relative stereo) [Compound 22, (±)-4-((αR*)-α-((2R*,5S*)-2,5-Dimethyl-1-piperazinyl)-3-hydroxybenzyl)-N,N-diethylbenzamide] yielded an EC50 [3, 8] of 4400 nM and an IC50 [4, 9] of 0.7 nM.
`CCN(CC)C(=O)c1ccc([C@H](c2cccc(O)c2)N2C[C@H](C)N(C)C[C@H]2C)cc1` (relative stereo) [Compound 10, (±)-N,N-diethyl-4-((αR*)-3-hydroxy-α-((2R*,5S*)-2,4,5-trimethyl-1-piperazinyl)benzyl)benzamide] showed an EC50 [3, 8] of 90 nM, a melting point of 220 to 221 °C and an IC50 [4, 9] of 1.1 nM.
With `C=CCN1C[C@@H](C)N([C@H](c2ccc(S(C)(=O)=O)cc2)c2cccc(O)c2)C[C@@H]1C` (relative stereo) [Compound 18, (±)-3-((αR*)-α-((2R*,5S*)-4-allyl-2,5-dimethyl-1-piperazinyl)-4-(methylsulfonyl)benzyl)phenol] the EC50 [3, 8] was 250 nM and the IC50 [4, 9] was 1.3 nM.
Compound `C=CCN1C[C@H](C)N([C@@H](c2cccc(O)c2)c2cccc(C(N)=O)c2)C[C@H]1C` (relative stereo) [Compound 6, (±)-3-((αR*)-α-((2S*,5R*)-4-Allyl-2,5-dimethyl-1-piperazinyl)-3-hydroxybenzyl)-benzamide] has an EC50 [3, 8] of 25 nM and an IC50 [4, 9] of 4 nM.
For `CCN(C)C(=O)c1ccc([C@H](c2cccc(O)c2)N2C[C@H](C)N(C)C[C@@H]2C)cc1` [Compound 16, N-ethyl-4-((αR)-3-hydroxy-α-((2S,5S)-2,4,5-trimethyl-1-piperazinyl)benzyl)-N-methylbenzamide], the Kb [5, 10] was 63.1 nM and the IC50 [4, 9] was 3.1 nM.
With `C[C@H]1CN([C@H](c2ccc(C(=O)N3CCCC3)cc2)c2cccc(O)c2)[C@@H](C)CN1C` [Compound 13, 3-((αR)-4-(1-pyrrolidinylcarbonyl)-α-((2S,5S)-2,4,5-trimethyl-1-piperazinyl)benzyl)phenol] the EC50 [3, 8] was 200 nM and the IC50 [4, 9] was 0.3 nM and 0.8 nM.
